Test system: cultured tissue from needle biopsy, Breast DCIS papillary neoplasm
Assay: dose response study with cumulative cell death on cultured patient biopsy tissue (patient 19055)
Format: cell-based, human
Conditions: in vitro cultured biopsy sample, patient 19055, Breast DCIS papillary neoplasm
Description: Comparative studies were performed using curcumin extract as described above (referred to as ACPJL 08), Sutherlandia leaf extract in water (referred to as ACPJL 35), Sutherlandia leaf extract in 50% ethanol and water solution (referred to as ACPJL 28), Sutherlandia leaf extract in 90% ethanol and water solution (referred to as ACPJL 07) and a combinatorial formulation using the curcumin extract and Sutherlandia leaf extract in water and alcohol according to this invention (referred to as ACPJL 20). These extracts were compared to a number of known botanical isolates with anti-cancer activity, as well as a number of known anti-cancer drugs, using a dose response design with cumulative cell death as the dependent variable. These studies were conducted on in vitro samples of cultured tissue, taken as biopsy samples from patients as part of a standard culture and testing process done in order to optimise treatment.
A representative sample of such a study is provided herein below.
Summary of Study of Patient with Assigned Number 19055
Patient from whom sample was obtained was a person presenting with a diagnosis of Breast DCIS papillary neoplasm. The sample was obtained via needle biopsy, before being cultured.

COc1cc2c(Oc3ccc4[nH]c(C)cc4c3F)ncnc2cc1OCCCN1CCCC1 [Cediranib]
overall assessment in standard culture and testing process: potential benefit

Nc1nc(Cl)nc2c1ncn2[C@@H]1O[C@H](CO)[C@@H](O)[C@@H]1F [Clofarabine]
overall assessment in standard culture and testing process: potential benefit

CC(=O)O[C@@]12CO[C@@H]1C[C@H](O)[C@@]1(C)C(=O)[C@H](O)C3=C(C)[C@@H](OC(=O)[C@H](O)[C@@H](NC(=O)OC(C)(C)C)c4ccccc4)C[C@@](O)([C@@H](OC(=O)c4ccccc4)[C@H]21)C3(C)C [Docetaxel]
overall assessment in standard culture and testing process: potential benefit

COc1cc2ncnc(Nc3ccc(F)c(Cl)c3)c2cc1OCCCN1CCOCC1 [Gefitinib]
overall assessment in standard culture and testing process: potential benefit

O=C1c2c(O)ccc(O)c2C(=O)c2c(NCCNCCO)ccc(NCCNCCO)c21 [Mitoxantrone]
overall assessment in standard culture and testing process: potential benefit

COC(=O)c1ccc2c(c1)NC(=O)/C2=C(\Nc1ccc(N(C)C(=O)CN2CCN(C)CC2)cc1)c1ccccc1 [Nintedanib]
overall assessment in standard culture and testing process: good efficacy and a positive dose response curve

CC(=O)O[C@H]1C(=O)[C@@]2(C)[C@H]([C@H](OC(=O)c3ccccc3)[C@]3(O)C[C@H](OC(=O)[C@H](O)[C@@H](NC(=O)c4ccccc4)c4ccccc4)C(C)=C1C3(C)C)[C@]1(OC(C)=O)CO[C@@H]1C[C@@H]2O [Paclitaxel]
overall assessment in standard culture and testing process: potential benefit

CC[C@]1(O)C[C@H]2CN(CCc3c([nH]c4ccccc34)[C@@](C(=O)OC)(c3cc4c(cc3OC)N(C=O)[C@H]3[C@@](O)(C(=O)OC)[C@H](OC(C)=O)[C@]5(CC)C=CCN6CC[C@]43[C@@H]65)C2)C1 [Vincristine]
overall assessment in standard culture and testing process: potential benefit

CCC1=C[C@@H]2CN(C1)Cc1c([nH]c3ccccc13)[C@@](C(=O)OC)(c1cc3c(cc1OC)N(C)[C@H]1[C@@](O)(C(=O)OC)[C@H](OC(C)=O)[C@]4(CC)C=CCN5CC[C@]31[C@@H]54)C2 [Vinorelbine]
overall assessment in standard culture and testing process: potential benefit

O=C(CCCCCCC(=O)Nc1ccccc1)NO [Vorinostat]
overall assessment in standard culture and testing process: potential benefit

Source: US12419931B2, “Anti-cancer composition” (ACUPHARM INTERNATIONAL PROPRIETARY LIMITED, priority 2020, dated 2025)
